The structures appear in SMILES notation.

This assay relates to P. falciparum 3D7 growth, pLDH absorbance. The experiment in a line: blood-stage malaria parasite growth potency – strain 3D7, dose response (AID 2305).
On to `Cc1ccc(NC(=O)c2ccc3ncccc3c2)cc1OC1CCN(C(C)C)C1` (stereo unspecified), for which the half-maximal inhibitory concentration (IC50) is 990 nM.

Take `COc1ccc(CNC(=O)Nc2cc3cc(-c4ccc(CN5CCCC5)cc4)ccc3n3c(C)nnc23)cc1`: the IC50 is 650 nM. Against the preceding compound, the IC50 is about 1.5-fold lower.

`COc1ccc2nccc([C@@H](O)CN3CCC(NCc4ccc5c(c4)OCCO5)CC3)c2c1` displayed an IC50 of 290 nM.

Take `CC(Cc1ccc(CN(CC(N)=O)Cc2ccc(CC(C)NCCc3cccc(Cl)c3)cc2)cc1)NCCc1cccc(Cl)c1` (stereo unspecified): the IC50 was found to be 670 nM.

Compound `CCc1cc(-c2onc(C(F)(F)F)c2-c2ccccc2)c(O)cc1OC` returned an IC50 of 790 nM. The IC50 values of the last two compounds are within 1.5-fold of each other.

Consider `COc1ccc(-c2cccc(NC(=O)c3cccc(C#N)c3)c2)cc1CN(C)CCN(C)C`, for which the IC50 came to 310 nM.

In turn, `O[C@@H](c1cccc2ccccc12)[C@@H]1CN(CCc2ccccc2)CC[C@@]1(O)c1ccccc1` gave an IC50 of 140 nM.

In turn, `CC(=O)Nc1cccc(C(=O)Nc2cccc(-c3ccc(-c4nc5ccc(C(F)(F)F)cc5[nH]4)s3)c2)c1` came in with an IC50 of 650 nM.

In the case of `Cc1c(C(=O)[C@@H]2C[C@H]2CN2CCC(N3CCCC3)CC2)sc2ccccc12`, the IC50 amounted to 1400 nM.

For the compound `O=C(N[C@H]1CCN(Cc2ccc(OCCCN3CCCCC3)cc2)C1)c1cc(Cl)cc(Cl)c1`, the IC50 was 620 nM.

On to `COc1cc(-c2nc(-c3ccc4c(c3)CCC4=NO)c(-c3ccncc3)[nH]2)ccc1OCCN1CCCCC1`, for which the IC50 worked out at 790 nM.

`CNCCNCc1ccc(-c2cccc(-c3nc4ccc(C(F)(F)F)cc4[nH]3)c2)cc1`: the IC50 was determined as 630 nM.

On to `CCOC(=O)c1ccc(-c2cnoc2-c2cc(CC)c(OC)cc2O)o1`, for which the IC50 came to 280 nM.

Consider `c1cncc(CCNCc2ccc(-c3ccc(CNC4Cc5ccccc5C4)cc3)cc2)c1`, for which the half-maximal inhibitory concentration (IC50) was determined as 1090 nM.

On to `Nc1nc2c(cnn2CCCCCCCP(=O)(O)O)c(=O)[nH]1`, for which the IC50 was determined as 470 nM. Against the preceding compound, the IC50 is about 2.3-fold lower.

As for `c1cc(CNC2Cc3ccc(-c4cccs4)cc3C2)cc(-n2ccnc2)c1` (stereo unspecified), the IC50 amounted to 590 nM. The IC50 values of the last two compounds are within 1.5-fold of each other.

For `CS(=O)(=O)CCNCc1cccc(-c2cc3c(Nc4ccc(OCc5ccccc5)cc4)ncnc3cn2)c1`, the IC50 was 730 nM.

As to `CN1CCN(CCCN(Cc2ccc(-c3cccc(CNCc4ccc5c(c4)OCO5)c3)cc2)C(=O)CCC2CCCC2)CC1`, the IC50 amounted to 1010 nM.

In turn, `Oc1ccc(Cl)cc1CN1CCC2(CCCN(CC3CCC3)C2)C1` (stereo unspecified) yielded an IC50 of 370 nM.

Turning to `CC(C)CCN1C(=O)C(NC(=O)Oc2ccccc2)C(=O)N(CC23CC4CC(CC(C4)C2)C3)c2ccccc21` (stereo unspecified), the IC50 is 750 nM.

The compound `COc1ccc2nccc(NN=Cc3ccc(F)cc3)c2c1` registered an IC50 of 720 nM. The IC50 values of the last two compounds are within 1.5-fold of each other.

In turn, `CN(C)CCn1c(=N)n(CC(O)c2ccc(Cl)c(Cl)c2)c2ccccc21` (stereo unspecified) displayed an IC50 of 800 nM.

For `CC1(C)CC(NC(=O)NC2CCN(Cc3ccccc3)CC2)CC(C)(CNC(=O)NC2CCN(Cc3ccccc3)CC2)C1` (stereo unspecified), the IC50 was 950 nM. The IC50 values of the last two compounds are within 1.5-fold of each other.

For the compound `CCCSc1nc2c(c(=O)n1CCc1ccccc1)C1(CCCC1)Cc1ccccc1-2`, the IC50 came out at 700 nM. The IC50 values of the last two compounds are within 1.5-fold of each other.

As to `CC(C)(CNCc1cccc(Oc2ccccc2)c1)c1nc(-c2ccc(Cl)c(O)c2)c(-c2ccnc(N)n2)[nH]1`, the IC50 came to 760 nM. The IC50 values of the last two compounds are within 1.5-fold of each other.

As for `Cc1cc(Br)cnc1CCCCN=C1NC(=O)CN1C`, the 50% inhibitory concentration (IC50) was determined as 370 nM.

With `Cc1cccc2[nH]c(-c3cccc(-c4ccc(NC(=O)CC5NC(=O)c6ccccc65)cc4)c3)nc12` (stereo unspecified), the IC50 came out at 290 nM.

In turn, `Cc1cc(-c2cccc(CNC3CCN(C)CC3)c2)ccc1S(=O)(=O)NCCN1CCCC1` registered an IC50 of 980 nM.

`Cc1cc(N[C@@H](Cc2ccccc2)C(=O)NC2CCCC2)nc(NCc2ccccc2C)n1` came in with an IC50 of 1230 nM.

Take `COc1ccc2nccc(N3CCC(SCCNCc4ccc5c(n4)NC(=O)CO5)C3)c2n1` (stereo unspecified): the IC50 stood at 800 nM.

`CCn1c(CN2CCC(C)CC2)nc2cc(NC(=O)c3cccs3)ccc21` had an IC50 of 560 nM.

Regarding `O=c1cc(NCCCNC(CNCCc2ccccc2)c2cc(Br)cc(Br)c2)[nH]c2ccccc12` (stereo unspecified), the IC50 amounted to 860 nM.

`Cc1cnc(C(=O)Nc2cccc(-c3ccc(-c4nc5ccc(C(F)(F)F)cc5[nH]4)s3)c2)cn1`: the IC50 was 700 nM.

With `Cc1ccc(/C=C/C(=O)NCCCCCN2CCCN(C(=O)Nc3ccc(Cl)c(Cl)c3)CC2)cc1`, the IC50 is 940 nM.

Turning to `O=C(/C=C/c1ccc(Cl)c(Cl)c1)NCCCCCN1CCCC(CNC(=O)/C=C/c2ccccc2)C1` (stereo unspecified), the IC50 stood at 790 nM.

In the case of `C[C@@H](N=C(Nc1ccc(-c2ccccc2)cc1)Nc1ccc(C#N)cc1O)c1ccc(Br)cc1`, the IC50 is 700 nM.

With `c1cc(-c2ccc(CNCc3ccc(-c4csnn4)cc3)cc2)cc(-c2nc3ccccc3[nH]2)c1`, the IC50 came out at 160 nM.

On to `Cc1ccc(NC(=O)c2ccc3ncccc3c2)cc1OC1CCN(Cc2ccc(F)cc2)CC1`, for which the IC50 turned out to be 940 nM. This IC50 lies about 5.9-fold higher than the previous one.

The compound `Cc1cccc(Nc2nccc(NCC(O)c3cccc(C(F)(F)F)c3)n2)c1` (stereo unspecified) had an IC50 of 510 nM.

Take `COc1ccc(NC(=O)Nc2cccc(-c3ccc(-c4nc5c(C)cccc5[nH]4)s3)c2)cc1`: the IC50 worked out at 670 nM. The IC50 values of the last two compounds are within 1.5-fold of each other.

`O=C(Nc1ccc(OC2CCN(Cc3ccccc3)CC2)c(Cl)c1)c1cccs1` displayed an IC50 of 310 nM.

`Cc1cc(OCC2CCN(c3ncc(C(=O)NC4CC4)cc3Cl)CC2)ccc1F` returned an IC50 of 790 nM.

With `O=C(Nc1cccc(-c2cccc(-c3nc4ccc(C(F)(F)F)cc4[nH]3)c2)c1)c1cnc[nH]1`, the IC50 was 210 nM.

In turn, `CCNc1c2ccc(Cl)cc2nc2ccc(OC)cc12` gave an IC50 of 840 nM.

`COc1ccccc1CCNc1nc(C)cc(N[C@@H](Cc2ccccc2)C(=O)Nc2ccccc2)n1` registered an IC50 of 1020 nM. This IC50 and that of the compound before are within 1.5-fold of each other.

Regarding `Cc1cc(C(=O)Nc2ccc3c(c2)CCN3C2CCN(Cc3cccc(F)c3F)C2)no1` (stereo unspecified), the IC50 amounted to 580 nM.

In the case of `Cc1ccc(O)cc1Nc1ccnc2ccc(C(C)(C)C)cc12`, the IC50 came to 1250 nM.

Compound `COc1ccc(-c2cc(-c3nc4ccc(C(=O)N5CCOCC5)cc4[nH]3)c(=O)n(C)c2)cc1OC` had an IC50 of 860 nM.

The compound `COc1ccc(CN(C)CCOc2ccc(NC(=O)c3cccc4c(=O)cc(-c5ccccc5)[nH]c34)cc2)cc1OC` gave an IC50 of 920 nM.

The compound `CC(C)c1ccc(-c2noc(SCC(=O)N3CCCCC3C)n2)cc1` (stereo unspecified) gave an IC50 of 1670 nM.

The compound `CCOc1ccccc1CNc1nccc(NCc2ccccc2OC)n1` showed an IC50 of 1490 nM.

`Cc1cc(Nc2ccnc(-c3ccc(Cl)cc3)n2)ccn1` registered an IC50 of 1040 nM.

Turning to `CCCn1cc2c(ccc3nc(N)nc(N)c32)n1`, the IC50 was found to be 80 nM.

The compound `CCOC(=O)c1ccc(N2CCN(CCCNC(=O)/C(=C/C=C/c3cc4cc(Cl)c(Cl)cc4[nH]3)OC)CC2)cc1` had an IC50 of 850 nM.

Regarding `COc1ccc(OC)c([C@H](O)[C@@H](C)NCc2cc(Cl)ccc2O)c1`, the IC50 was 380 nM.

`Cc1ccc2c(Cc3cnc(N)nc3N)cc(C)c(N)c2n1` returned an IC50 of 1420 nM.

Regarding `Clc1cccc(Cl)c1CCNCC1CCN(CC2CCCCC2)CC1`, the IC50 was 210 nM.

`O=c1cc(NCCCNCc2ccc3c(c2)OC(F)(F)O3)[nH]c2ccccc12` showed an IC50 of 770 nM.

On to `COc1ccccc1-n1c(SCC(=O)c2ccc3c(c2)CC(=O)N3C)nnc1-c1cccs1`, for which the IC50 amounted to 960 nM.

`Cc1ccc(/C=C/C(=O)NCCCCCN2CCC(c3c[nH]c4ccccc34)CC2)cc1` gave an IC50 of 1010 nM.

In turn, `CN1CCN(CCCN(Cc2csc(-c3ccc(CNCc4ccccc4)cc3)n2)C(=O)Nc2cc(Cl)cc(Cl)c2)CC1` yielded an IC50 of 700 nM.

Consider `O=C(Cc1ccccc1)NC(Nc1ccc([N+](=O)[O-])cc1)C(Cl)(Cl)Cl` (stereo unspecified), for which the IC50 was 970 nM.

`O=C(NC1CCN(CC2(c3ccc(Cl)cc3)CCC2)CC1)c1cscn1` returned an IC50 of 530 nM.

Consider `Cc1nnsc1C(=O)Nc1cccc(-c2ccc(-c3nc4ccccc4[nH]3)cc2)c1`, for which the IC50 was determined as 870 nM.

The compound `CC(C)(C)OC(=O)c1c(NC(=O)/C=C/c2ccc(O)c(O)c2)sc2c1CCCC2` had an IC50 of 820 nM.

Take `c1ccc(Oc2ccc(Nc3ccnc4c(-c5ccccn5)cccc34)cc2)cc1`: the 50% inhibitory concentration (IC50) was determined as 990 nM.

The compound `Cc1nc2ccc(Nc3nccc(-c4c(-c5cccc(NC(=O)c6c(F)cccc6F)c5)nn5ccccc45)n3)cc2nc1C` gave an IC50 of 1070 nM.

`CC(C)=CCc1c(-c2ccc(O)cc2O)oc2c3c(cc(O)c2c1=O)OC(C)(C)C=C3` registered an IC50 of 980 nM.

`COc1cc(C(F)(F)F)nc2c(CNCCCNc3cc(=O)c4ccccc4[nH]3)scc12` gave an IC50 of 1180 nM.

`C=CCn1c(Sc2ccc(C#N)c([N+](=O)[O-])c2)nnc1-c1cc(OC)cc(OC)c1` returned an IC50 of 440 nM.

In turn, `CC(C)COc1ccc(Cl)cc1Cc1ccc(-c2nc3ccc(Br)cc3[nH]2)o1` registered an IC50 of 1400 nM.

In turn, `CCNc1cc(C(=O)N[C@@H](Cc2ccccc2)[C@H](O)CNC(C)CC(C)C)c(F)c(N2CCCCS2(=O)=O)c1` (stereo partly specified) showed an IC50 of 1120 nM. This IC50 and that of the compound before are within 1.5-fold of each other.

In the case of `Cc1cc(NC(=O)c2ccc(S(=O)(=O)N(Cc3ccccc3)C(C)C)cc2)no1`, the IC50 stood at 850 nM.

In turn, `CC(C)C[C@H](Nc1ccc(C#N)c2ccccc12)C(=O)NC(C)(C)C12CC3CC(CC(C3)C1)C2` yielded an IC50 of 920 nM. This IC50 and that of the compound before are within 1.5-fold of each other.

In the case of `CO/C(=C\C=C\c1cc2cc(Cl)c(Cl)cc2[nH]1)C(=O)NC1CCN(CCCc2ccccc2)CC1`, the IC50 was 770 nM.

Compound `Cc1ccc(N2C(=O)C3C(C2=O)[C@]2(c4ccccc4)C(=O)[C@@]3(c3ccccc3)C(c3ccccc3)=C2c2ccccc2)cc1` (stereo partly specified) had an IC50 of 870 nM.

As for `O=C(/C=C/c1ccc(Cl)c(Cl)c1)NCCCCCN1CCC(C(=O)Nc2ccc(F)c(Cl)c2)CC1`, the IC50 worked out at 650 nM.

For the compound `CCN(CC)CCCN(CCCN(CC)CC)c1cc(C)nc(Nc2ccc(Br)cc2)n1`, the IC50 is 200 nM.

Turning to `CC(=O)Oc1c(C2CCN(CCCCNC(=O)c3ccc(-c4ccc(C#N)cc4)cc3)CC2)ccc2c1CCCC2`, the IC50 is 1130 nM.

For the compound `COc1ccc(-c2nnc(Sc3ccc(C#N)c([N+](=O)[O-])c3)n2CC(C)C)cc1`, the IC50 was 820 nM.

Compound `CCC1CN2CCc3c([nH]c4ccccc34)C2CC1CC1=NCCc2c1[nH]c1ccc(OC)cc21` (stereo unspecified) displayed an IC50 of 640 nM.

With `CCCc1cc(NC2CCN(C)CC2)nc(Nc2cccc(OC)c2)n1`, the IC50 was determined as 770 nM.

`COc1ccc(CNC2CCN(C)CC2)cc1-c1ccc(S(=O)(=O)NCc2ccccc2)c(F)c1` returned an IC50 of 800 nM.

Compound `COc1cc(C(=O)Nc2ccc3nc(N4CCN(C)CC4)cc(C)c3c2)cc(OC)c1OC` returned an IC50 of 290 nM. Against the preceding compound, the IC50 is about 2.8-fold lower.

Consider `CCN(CCCN1CCCCC1)c1cc(C)nc(Nc2ccc(Br)cc2F)n1`, for which the IC50 was found to be 550 nM.

Consider `CC(C)c1ccc(NS(=O)(=O)c2cccc(C(=O)NC3CCN(CC4CCCCC4)CC3)c2)cc1`, for which the IC50 was found to be 1300 nM.

As usually defined, the IC50 is the concentration at which inhibition is half-maximal.

The record behind these values is PubChem BioAssay AID2305 (GlaxoSmithKline (GSK), 2010).
